Test results from patent US8222008B2, “Methods and compositions for treating cancer” (The Administrators of The Tulane Educational Fund, priority 2003, dated 2012).

Tests used:
normal fibroblasts = test: Phase micrographs, apoptotic morphology; assay type: cell-based, human; conditions: normal cells with CDME added, TNF-α exposure
Description: Phase micrographs (not shown) were also obtained of normal fibroblasts after TNF-α exposure alone, in normal fibroblasts in CDME, and in nephropathic fibroblasts after TNF-α exposure alone. Typical apoptotic morphology was observed, i.e., typical blebs in the plasma membrane are seen after treatment with TNF-a in both normal and cystinotic cell lines and the modulating effects of MEA and CDME was seen.

[1] = tested on: human renal proximal tubule epithelial cells; test: Effect of various compounds on apoptosis, CaspASE staining and FACS; assay type: cell-based
Method: Normal and cystinotic fibroblasts were purchased from the Coriell Mutant Cell Repository, and cultured in Coon modification of Ham F12 medium, supplemented with 10% fetal calf serum (FCS). Renal proximal tubule epithelial (RPTE; Biowhittaker Corp.) were cultured in renal epithelial basal medium supplemented with one Singlequots™ kit (Biowhittaker) per 500 mL to make renal epithelial growth media (REGM, Biowhittaker). Fibroblasts and RPTE were maintained in a 5% carbon dioxide, 95% air, humidified incubator at 37° C. (Thoene J. G. et al, 1976 J. Clin. Invest, 58:180-189).
Cultured human renal proximal tubule epithelial cells were incubated with various apoptotic compounds at a concentration of 0.5 mM for 16 hours. Following incubation, cells were stained with CaspASE. Fluorescence-activated cell sorting (Beckman Coulter Epics Elite) was used to determine the percentage of cells undergoing apoptosis from each treatment group.

[2] = tested on: renal proximal tubule epithelial (RPTE) cells; test: Time course of apoptosis, TUNEL (FIG. 3); assay type: cell-based, human
Method: FIG. 3 is a graph showing the effect of CDME on apoptosis in renal proximal tubule epithelial (RPTE) cells. Semi-confluent RPTE cells were treated with either 0.25 mM CDME or TNF-a, harvested at 0.5, 1, 3, and 6 hours, stained with TUNEL, and enumerated by fluorescence microscopy. Each experiment was done in triplicate. The control (time 0) cystine content was 0.6 nmol/mg protein. After 1 hour incubation, the cystine content was 2.2 nmol/mg protein.
2. TUNEL Assay • The TUNEL assay employs terminal deoxynucleotidyl transferase (TdT) to label the ends of double stranded DNA breaks, which occur in apoptotic cells, with FITC-conjugated dUTP. Cells were fixed in 4% buffered formalin, washed, incubated in permeabilization solution (0.1% Triton X-100 in 0.1% Na Citrate) for 2 minutes on ice and then stained with 25 μL of TdT/45 μL of labeled dNTP mix for 40 minutes at 37° C. The cells were visually enumerated by fluorescence microscopy, scoring a minimum of five fields (250 to 300 cells) for fluorescence in triplicate followed by counting all cells in the same field by light microscopy, with a minimum of 750 cells scored per condition. The apoptosis rate is the total number of cells that fluoresce divided by the total cells in the field. […]

RPTE cells = test: Annexin V and propidium iodide staining; assay type: cell-based, human; conditions: TNF-a after loading with 0.1 mM CDME
Method: 3. The Annexin V Assay • Annexin V-propidium iodide (PI) staining was performed as described by the manufacturer (Annexin V Fluos kit directions, Roche Laboratories) one time after TNF-a stimulation. D. Cystine Binding Protein Assay
Lysosomal cystine loading of RPTE cells was accomplished by exposure to 0.1 mM or 0.25 CDME in normal REGM for 1 hour before treatment with or without apoptotic triggers.
Exposure of RPTE cells to TNF-a after cystine loading by exposure to 0.1 mM CDME and analysis by Annexin V and Propidium iodide staining yielded 4.3% Annexiv V positive cells and zero PI positive cells at 1 h after exposure, 9.5% and 1.7% at 3 hours and 25.3% and 9.1% at 6 hours. The proportion of necrotic RPTE cells increased with duration of exposure to CDME, but remained substantially less than the number of those that are apoptotic.

MCF-7 (ER+) = test: Apoptosis in breast cancer cell lines, CaspACE assay with flow cytometry; assay type: cell-based, human; conditions: CDME 500 μM, 16 hours
Description: (§1) The apoptotic effect of CDME was compared to that of tamoxifen using the CaspACE™ assay system (Promega) and conventional flow cytometry techniques.
(§2) All cell lines were obtained from the American Type Culture Collection, P.O. Box 1549, Manassas, Va., 20108 unless otherwise indicated. The cell lines studied were estrogen receptor-negative breast cancer cell lines MDA-MB-231 (ATCC Accession No. HTB-26) and MDA-MB-468 (ATCC Accession No. HTB-132) and estrogen receptor-positive breast cancer cell lines, MCF-7 (ATCC Accession No. HTB-22) and T-47D (ATCC Accession No. HTB-133).
(§3) All cell lines were grown on the bottom of 12-well flasks in Gibco RPMI-1640, until they reached the confluency of about 50%. After that, the medium was exchanged with DMEM (Sigma, D-5030), supplemented with 10% charcoal-treated FBS.
(§4) After four days (at confluency of about 75%), cells were treated by exposure to either CDME (500 μM) or tamoxifen (100 μM) or neither for 16 hours at 37° C. CaspACE™ assay analysis of the treated and control cells was performed as described in Example 2 and measured via flow cytometry. Note that the dosage of tamoxifen was a maximum positive control dose, higher than that normally administered for chemotherapy.

MDA-MB-231 (ER−) = test: as above; assay type: cell-based, human; conditions: CDME 500 μM, 16 hours
Description: as §1, §2, §3, §4

MDA-MB-468 (ER−) = test: as above; assay type: cell-based, human; conditions: CDME 500 μM, 16 hours
Description: as §1, §2, §3, §4

T-47D (ER+) = test: as above; assay type: cell-based, human; conditions: CDME 500 μM, 16 hours
Description: as §1, §2, §3, §4

COC(=O)[C@@H](N)CSSC[C@H](N)C(=O)OC [CDME, cystine dimethyl ester]
apoptotic morphology in phase micrographs (normal fibroblasts): Enhanced apoptosis
toxicity to RPTE cells ([1]; 0.5 mM (concentration employed in fibroblasts)): toxic
percentage of cells undergoing apoptosis ([1]; RPTE cells, method states 0.5 mM for 16 hours, CaspASE, FACS): 39.7%
rate of apoptosis compared with TNF-a alone ([2]; 0.25 mM CDME alone): equal to that induced by exposure to TNF-a alone
time to maximum rate of apoptosis ([2]; CDME, followed by lysis and release from the dish): ≤ 6 h
Annexin V positive cells (RPTE cells; 1 h after exposure): 4.3%
PI positive cells (RPTE cells; 1 h after exposure): zero
Annexin V positive cells (RPTE cells; 3 hours): 9.5%
PI positive cells (RPTE cells; 3 hours): 1.7%
Annexin V positive cells (RPTE cells; 6 hours): 25.3%
PI positive cells (RPTE cells; 6 hours): 9.1%
percent of apoptotic cells (±S.D.) (MCF-7 (ER+)): 6.16 ± 1.80%
percent of apoptotic cells (±S.D.) (MDA-MB-231 (ER−)): 99.32 ± 0.22%
percent of apoptotic cells (±S.D.) (MDA-MB-468 (ER−)): 44.88 ± 13.52%
percent of apoptotic cells (±S.D.) (T-47D (ER+)): 7.78 ± 4.19%
